The subject of one assay is K-562 tumor grafts. Briefly: Tumor growth inhibition in K-562 murine xenograft model. It counts as in vivo, Mouse (Mus musculus). The conditions noted are these: bid., p.o., K-562 xenograft, SCID Bg mice. As for the experimental part: K-562 cancer cell line sourced from American Type Culture Collection (ATCC), USA. Cells were grown in IMDM medium (Sigma, Cat #30-2005) supplemented with 10% FBS (Invitrogen, Cat #10438-026), and 1% penicillin streptomycin (Invitrogen, Cat #15140-122). To establish xenograft, the cells were harvested by trypsinization when they reach around 70 to 80% confluence and 5 million K-562 cells were suspended in 200 μL of serum-free medium and mixed at 1:1 ratio with matrigel before implanting subcutaneously into the dorsal right flank of SCID Bg mice using a 1 mL BD syringe attached to a 24-gauge needle.
K-562 tumor grafts were measured after 10 days of cell inoculation once they became palpable. When the average tumor volume reached around 85 mm^3, animals were dosed after randomization into different treatment groups keeping tumor volume and number of animals in such a way so that the average tumor volume of each group remained same across the groups.
Compounds were formulated in 0.5% CMC+0.1% Tween 80 and given for 12 consecutive days BID with 8 hour gaps.

The next assay concerns MIA PaCa-2 cells. The assay can be described thus: Cellular viability assay (Cell Titer Fluor). Particulars: Homo sapiens, MIA PaCa-2, 72 h, 72 hours incubation. The assay is classed as cell-based. As for the experimental part: Cell viability were performed using the Cell Titer Fluor™ Assays (Promega G6080). MIA PaCa-2 cells are grown in DMEM media with 10% FBS, 1% Pen/Strep/Amphotericin B. Cells are trypsinized and counted using the Nexcelom cellometer. 5,000 cells/100 μl are plated per well in Greiner black/clear 96-well plates. Cells should be within 10 passages of stock vial for use in workflow. Three distinct lineages of these cells are cultured in parallel for multiple passages and 5 full plates of each lineage are seeded for one run. Small molecule compounds are provided as 100 mM stock solutions in DMSO. Dilution series plates are prepared using 1:3 dilution to achieve a 7 point concentration on a half log scale. After addition of compounds, cells are incubated 37° C., 5% CO2 for 72 hours.
For each test compound condition, triplicate technical replicates are used. For each reference compound, duplicate technical replicates are used. At the end of the 72-hour incubation, spent media is discarded. Then, 100 μl of GF-AFC diluted in DMEM (serum and phenol red-free) is added at 1:2000 concentration (5 μl/10 ml). Cells are incubated with reaction buffer for 1 h at 37° C. Fluorescence is then read on the plate reader with excitation wavelength of 390 nm and emission wavelength of 505 nm. All raw data are analyzed on Microsoft Excel 2010 and normalized to the DMSO vehicle control. Relative results are copied into GraphPad Prism for non-linear regression analysis and determination of IC50 and other dose curve parameters (min, max, Hill slope, etc.) using the log (inhibitor) vs. response equation. Values are as follows: A represents an IC50 of <[…], B represents an IC50 of 1 mM to 10 mM, C represents an IC50 of >10 mM.

In assay [1] the test system is MV.4.11 cell (B myelomonocytic leukemia) line derived xenograft. The assay can be described thus: Anti-tumor efficacy in MV.4.11 cell line derived xenograft model. The assay is classed as in vivo. The conditions noted are these: MV.4.11 xenograft, nude mice. As for the experimental part:
Nude mice were implanted with 5×10^6 cells MV.4.11 cells subcutaneously in the right flank region. Mice were randomized into 3 groups (8 mice each) on day 12 post cells implantation. Vehicle control was administered with formulation of test compound and treatment group was administered with compound 131 at doses 75 and 150 mg/kg orally as a suspension in 0.1% Tween-80+0.5% CMC (carboxymethyl cellulose) twice daily (b.i.d) for 24 days. Tumor measurements and body weight were recorded thrice weekly during the study period till study completion (day 24).

Structures are written as SMILES.

In the case of `COc1ccccc1-c1nc(CNC(=O)c2ccccc2OC(F)F)n[nH]1` [Compound 126, 2-(difluoromethoxy)-N-((5-(2-methoxyphenyl)-1H-1,2,4-triazol-3-yl)methyl) benzamide], in the assay with K-562 tumor grafts (75 mg/kg/dose), the “% Tumor Growth Inhibition (TGI) on day 3” value was determined as 41%, the “% Tumor Growth Inhibition (TGI) on day 5” value was 32%, the “% Tumor Growth Inhibition (TGI) on day 8” value was found to be 27% and the “% Tumor Growth Inhibition (TGI) on day 10” value stood at 27%. Moreover, the “% Tumor Growth Inhibition (TGI) on day 12” value with K-562 tumor grafts (75 mg/kg/dose) turned out to be 36%. Moreover, in the assay with K-562 tumor grafts (200 mg/kg/dose), the “% Tumor Growth Inhibition (TGI) on day 3” value is given as 55%, the “% Tumor Growth Inhibition (TGI) on day 5” value came out at 51%, the “% Tumor Growth Inhibition (TGI) on day 8” value was 51% and the “% Tumor Growth Inhibition (TGI) on day 10” value is given as 43%. Also, the “% Tumor Growth Inhibition (TGI) on day 12” value in the assay on K-562 tumor grafts (200 mg/kg/dose) is 44%. In the assay on MIA PaCa-2 cells, this compound came in with a 50% inhibitory concentration (IC50) of under 1000 nM.

Take `COc1ccc(F)cc1-c1nc(CNC(=O)c2cccc3c2OC(F)(F)O3)n[nH]1` [Compound 131]: the tumor growth inhibition in assay [1] (75 mg/kg orally twice daily (b.i.d) for 24 days) was found to be 73.6%; in assay [1] (150 mg/kg orally twice daily (b.i.d) for 24 days), 86.3%. This compound also had an IC50 in the assay on MIA PaCa-2 cells of under 1000 nM.

On to `COc1ccc(F)cc1-c1nc(CNC(=O)c2cc(F)ccc2OC(F)(F)F)n[nH]1` [Compound 133], for which, in the assay on K-562 tumor grafts (25 mg/kg/dose), the “% Tumor Growth Inhibition (TGI) on day 3” value is 43%, the “% Tumor Growth Inhibition (TGI) on day 5” value is 37%, the “% Tumor Growth Inhibition (TGI) on day 8” value turned out to be 48% and the “% Tumor Growth Inhibition (TGI) on day 10” value is on record as 45%. Besides, the “% Tumor Growth Inhibition (TGI) on day 12” value with K-562 tumor grafts (25 mg/kg/dose) was found to be 43%. For the same compound, in the assay on K-562 tumor grafts (75 mg/kg/dose), the “% Tumor Growth Inhibition (TGI) on day 3” value is 47%, the “% Tumor Growth Inhibition (TGI) on day 5” value was determined as 56%, the “% Tumor Growth Inhibition (TGI) on day 8” value was 61% and the “% Tumor Growth Inhibition (TGI) on day 10” value is recorded as 60%. In the assay on K-562 tumor grafts (75 mg/kg/dose), the “% Tumor Growth Inhibition (TGI) on day 12” value worked out at 64%. Besides, the IC50 in the assay with MIA PaCa-2 cells was under 1000 nM.

Values taken from patent US11091447B2, “UBE2K modulators and methods for their use” (Berg LLC, priority 2020, dated 2021).
